Experimental data as given in article PMC11024869, “The activity of antimicrobial peptoids against multidrug-resistant ocular pathogens” (Contact lens & anterior eye : the journal of the British …, 2024).
≈ marks a conversion by molar mass, not a printed value. Non-standard residues stand in square brackets, D forms with d. Residues, ends and D or L forms follow the SMILES beside them. Nspe(4-Br) = C[C@H](NCC(=O)O)c1ccc(Br)cc1; Nlys = NCCCCNCC(=O)O

Assays:
Format in all cases: cell-based
[1] = test system: Pseudomonas aeruginosa PAO1; settings: PAO1, 24 h
Text: (§3) The S. pneumoniae strains used were SP04, SP06 and SP07 [46] and Streptococcus gallolyticus SV06 (all isolated from eyes of contact lens wearers during adverse events); P. aeruginosa PAO1 (which was originally isolated from a wound, and is an invasive strain containing the gene exoS) as well as isolates from microbial keratitis, PA 235 (invasive strain containing exoS), PA216 (a cytotoxic strain containing exoU), PA219 (cytotoxic strain containing exoU), PA 233 (cytotoxic strain containing exoU), with various susceptibilities to antibiotics were also used [14]. C. albicans ATCC 10231, a yeast, isolated from case of a human bronchomycosis, was also evaluated.
(§4) The peptoids’ minimum inhibitory and bactericidal concentrations (MIC and MBC) were determined using micro broth dilution methods as previously described with slight modifications, [26, 39, 49, 50], and without using acetic acid and bovine serum albumin [39]. Briefly, bacteria or yeast were suspended in Muller Hinton broth (MHB, Oxoid, Thermo Fisher Scientific, Thebarton, SA, Australia) at 0.1 OD660nm, which was equivalent to 1x10^8 colony forming units (CFU) mL^−1. This suspension was further diluted to achieve 5x10^6 CFU mL^−1. The peptoids were diluted in MHB from 250 to 0.24 μg mL^−1 in 96-well polystyrene microplates (COSTAR, Corning Incorporated, New York, NY, USA) [39]. […] This was followed by addition of 100 μL of each microbial suspensions. Wells with only bacteria or the yeast were treated as a negative control, and wells with only MHB medium were treated as a blank. The plates were incubated at 37 °C with shaking at 120 rpm for 24 h. After incubation, the media in each well was serially diluted in phosphate buffered solution and then inoculated onto tryptone soya agar (Oxoid) plates for bacteria, or Sabouraud’s dextrose agar for the yeast, and incubated at 37 °C for 18 hrs. Post incubation, the number of CFUs on the agar plates was counted.

[2] = test system: Pseudomonas aeruginosa PA216; settings: PA216, 24 h
Text: as §3, §4

[3] = test system: Pseudomonas aeruginosa PA219; settings: PA219, 24 h
Text: as §3, §4

[4] = test system: Pseudomonas aeruginosa PA233; settings: PA233, 24 h
Text: All S. aureus strains used were isolated from cases of microbial keratitis (Table 1) with various susceptibilities to antibiotics. The S. pneumoniae strains used were SP04, SP06 and SP07 [46] and Streptococcus gallolyticus SV06 (all isolated from eyes of contact lens wearers during adverse events); P. aeruginosa PAO1 (which was originally isolated from a wound, and is an invasive strain containing the gene exoS) as well as isolates from microbial keratitis, PA 235 (invasive strain containing exoS), PA216 (a cytotoxic strain containing exoU), PA219 (cytotoxic strain containing exoU), PA 233 (cytotoxic strain containing exoU), with various susceptibilities to antibiotics were also used. C. albicans ATCC 10231, a yeast, isolated from case of a human bronchomycosis, was also evaluated.
The peptoids’ minimum inhibitory and bactericidal concentrations (MIC and MBC) were determined using micro broth dilution methods as previously described with slight modifications, [26, 39, 49, 50], and without using acetic acid and bovine serum albumin [39]. Briefly, bacteria or yeast were suspended in Muller Hinton broth (MHB, Oxoid, Thermo Fisher Scientific, Thebarton, SA, Australia) at 0.1 OD660nm, which was equivalent to 1x10^8 colony forming units (CFU) mL^−1. This suspension was further diluted to achieve 5x10^6 CFU mL^−1. The peptoids were diluted in MHB from 250 to 0.24 μg mL^−1 in 96-well polystyrene microplates (COSTAR, Corning Incorporated, New York, NY, USA). This range was selected to cover the range of MIC values previously reported for ESKAPE pathogens. This was followed by addition of 100 μL of each microbial suspensions. Wells with only bacteria or the yeast were treated as a negative control, and wells with only MHB medium were treated as a blank. The plates were incubated at 37 °C with shaking at 120 rpm for 24 h. After incubation, the media in each well was serially diluted in phosphate buffered solution and then inoculated onto tryptone soya agar (Oxoid) plates for bacteria, or Sabouraud’s dextrose agar for the yeast, and incubated at 37 °C for 18 hrs. Post incubation, the number of CFUs on the agar plates was counted.

[5] = test system: Pseudomonas aeruginosa PA235; settings: PA235, 24 h
Text: as §3, §4

[6] = test system: Staphylococcus aureus SA34; settings: SA34, 24 h
Text: as §3, §4

[7] = test system: Staphylococcus aureus SA65; settings: SA65, 24 h
Text: as §3, §4

[8] = test system: Staphylococcus aureus SA113; settings: SA113, 24 h
Text: as §3, §4

[9] = test system: Staphylococcus aureus SA114; settings: SA114, 24 h
Text: as §3, §4

[10] = test system: Staphylococcus aureus SA117; settings: SA117, 24 h
Text: as §3, §4

[11] = test system: Streptococcus pneumoniae SP04; settings: SP04, 24 h
Text: as §3, §4

[12] = test system: Streptococcus pneumoniae SP06; settings: SP06, 24 h
Text: as §3, §4

[13] = test system: Streptococcus pneumoniae SP07; settings: SP07, 24 h
Text: as §3, §4

[14] = test system: Streptococcus gallolyticus SG04; settings: 24 h
Text: as §3, §4

[15] = test system: viridans group streptococcus SV06; settings: 24 h
Text: as §3, §4

[16] = test system: Candida albicans ATCC 10231; assay: MIC/MBC (fungicidal) micro broth dilution; settings: ATCC 10231 (yeast), MHB, 24 h 37 °C
Text: as §3, §4

[17] = test system: horse erythrocytes; assay: In vitro assay for hemolysis, horse blood
Procedure: (§1) Hemolysis caused by the peptoids was measured using 18 to 20 mL of a horse or human blood collected in EDTA-coated tubes which has been centrifuged at 500×g for 5 min. The supernatant was discarded and the pellet containing the cells were resuspended in PBS to a final volume of 20 mL. This step was repeated five times. After the final wash, the pellet was resuspended in PBS at the ratio of 1:10 (1 mL red blood cell: 9 mL PBS) to yield a final red blood cell (RBC) concentration of approximately 5 × 10^8 cells mL^−1. The concentration of RBCs was confirmed using a hemocytometer. The peptoids (stock concentration 2 mM) were diluted sequentially (two-fold dilutions) in PBS to final concentrations of […]. All the dilutions were subsequently mixed with the RBC suspension at the ratio of 1:1. MilliQ water was used as a positive control and PBS was used as a negative control in this assay. All samples were incubated at 37 °C for 3 h. Following incubation, the tubes were centrifuged at 500 x g for five mins, the supernatants were collected, transferred to wells in a 96 well plate and their optical density was measured at 540 nm. The percentage of hemolysis was calculated by dividing the absorbance of the test sample by the absorbance of the positive control, and multiplying by 100. Data are presented as the hemolysis caused by each dilution of peptoid, and as the concentration of peptoid that caused 10 % or 50 % lysis of red blood cells.
(§2) The geometric mean is the nth root of the multiplied numbers, where n is the total number of data values. A similar formula was used to calculate the selectivity ratio, but by using the concentration of peptoid that caused 10 % hemolysis.

[18] = test system: human erythrocytes; assay: In vitro assay for hemolysis, human blood
Procedure: as §1, §2

C[C@@H](c1ccc(Br)cc1)N(CC(=O)N(CCCCN)CC(=O)N(CC(=O)N(CC(=O)N(CCCCN)CC(N)=O)[C@@H](C)c1ccc(Br)cc1)[C@@H](C)c1ccc(Br)cc1)C(=O)CN(C(=O)CNCCCCN)[C@@H](C)c1ccc(Br)cc1 [TM14] (H-[Nlys][Nspe(4-Br)][Nspe(4-Br)][Nlys][Nspe(4-Br)][Nspe(4-Br)][Nlys]-NH2)
MBC [1]: 15 mg/L (≈ 11 µM)
MIC [1]: 7.8 mg/L (≈ 5.73 µM)
MBC [2]: 15 mg/L (≈ 11 µM)
MIC [2]: 7.8 mg/L (≈ 5.73 µM)
MBC [3]: 15(11)/15(11) μg mL^−1
MIC [3]: 15(11)/15(11) μg mL^−1
MBC [4]: 31 mg/L (≈ 22.8 µM)
MIC [4]: 15 mg/L (≈ 11 µM)
MBC [5]: 31 mg/L (≈ 22.8 µM)
MIC [5]: 15 mg/L (≈ 11 µM)
MBC [6]: 3.9(2.9)/3.9(2.9) μg mL^−1
MIC [6]: 3.9(2.9)/3.9(2.9) μg mL^−1
MBC [7]: 1.9(1.4)/1.9(1.4) μg mL^−1
MIC [7]: 1.9(1.4)/1.9(1.4) μg mL^−1
MBC [8]: 3.9 mg/L (≈ 2.86 µM)
MIC [8]: 1.9 mg/L (≈ 1.4 µM)
MBC [9]: 1.9(1.4)/1.9(1.4) μg mL^−1
MIC [9]: 1.9(1.4)/1.9(1.4) μg mL^−1
MBC [10]: 3.9(2.9)/3.9(2.9) μg mL^−1
MIC [10]: 3.9(2.9)/3.9(2.9) μg mL^−1
MBC [11]: 15(11)/15(15) μg mL^−1
MIC [11]: 15(11)/15(15) μg mL^−1
MBC [12]: 1.9(1.4)/1.9(1.4) μg mL^−1
MIC [12]: 1.9(1.4)/1.9(1.4) μg mL^−1
MBC [13]: 15(11)/15(11) μg mL^−1
MIC [13]: 15(11)/15(11) μg mL^−1
MBC [14]: 15(11)/15(11) μg mL^−1
MIC [14]: 15(11)/15(11) μg mL^−1
MBC [15]: 15(11)/15(11) μg mL^−1
MIC [15]: 15(11)/15(11) μg mL^−1
MIC ([16]; ≥90 % reduction in CFUs): 3.9(2.8)/3.9(2.8) μg mL^−1
MBC (minimum fungicidal concentration) ([16]; ≥99.99 % reduction in CFUs): 3.9(2.8)/3.9(2.8) μg mL^−1
SR horse blood (ratio HC10 to geometric mean MIC) [17]: 0.8
Horse HC10 ([17]; red cells of horse, 3 h): 3 µM
Horse HC50 ([17]; red cells of horse, 3 h): 45 µM
TI horse blood (ratio HC50 to geometric mean MIC) ([17]; therapeutic index): 11
SR human blood (ratio HC10 to geometric mean MIC) [18]: 2
Human HC10 ([18]; red cells of human, 3 h): 8 µM
Human HC50 ([18]; red cells of human, 3 h): 90 µM
TI human blood (ratio HC50 to geometric mean MIC) ([18]; therapeutic index): 23
